{"source": "PubChem BioAssay (NCI)", "assay_in_all_cases": "growth of human tumour cells (NCI), 48 h", "key": {"[1]": {"tested_on": "OVCAR-3 ovarian"}, "[2]": {"tested_on": "SK-OV-3 ovarian"}, "[3]": {"tested_on": "MOLT-4 leukemia"}, "[4]": {"tested_on": "SN12C renal"}, "[5]": {"tested_on": "A549 NSCLC"}, "[6]": {"tested_on": "SW-620 colon"}, "[7]": {"tested_on": "SF-295 CNS"}, "[8]": {"tested_on": "MDA-MB-435"}, "[9]": {"tested_on": "SNB-75 CNS"}, "[10]": {"tested_on": "BT-549 breast"}, "[11]": {"tested_on": "KM12 colon"}, "[12]": {"tested_on": "A498 renal"}, "[13]": {"tested_on": "MALME-3M melanoma"}, "[14]": {"tested_on": "MCF7 breast"}, "[15]": {"tested_on": "NCI-H226 lung"}, "[16]": {"tested_on": "EKVX NSCLC"}, "[17]": {"tested_on": "SK-MEL-2 melanoma"}, "[18]": {"tested_on": "TK-10 renal"}, "[19]": {"tested_on": "T-47D breast"}, "[20]": {"tested_on": "COLO 205 colon"}, "[21]": {"tested_on": "ACHN renal"}, "[22]": {"tested_on": "RXF 393 renal"}, "[23]": {"tested_on": "M14 melanoma"}, "[24]": {"tested_on": "OVCAR-5 ovarian"}, "[25]": {"tested_on": "U251 CNS"}, "[26]": {"tested_on": "SF-268 CNS"}, "[27]": {"tested_on": "RPMI-8226 leukemia"}, "[28]": {"tested_on": "SK-MEL-5 melanoma"}, "[29]": {"tested_on": "SF-539 CNS"}, "[30]": {"tested_on": "CAKI-1 renal"}, "[31]": {"tested_on": "786-0 renal"}, "[32]": {"tested_on": "HT29 colon"}, "[33]": {"tested_on": "IGROV1 ovarian"}, "[34]": {"tested_on": "UACC-62 melanoma"}, "[35]": {"tested_on": "DU-145 prostate"}, "[36]": {"tested_on": "OVCAR-4 ovarian"}, "[37]": {"tested_on": "LOX IMVI melanoma"}, "[38]": {"tested_on": "MDA-MB-231 breast"}, "[39]": {"tested_on": "K-562 leukemia"}, "[40]": {"tested_on": "UO-31 renal"}, "[41]": {"tested_on": "HCC-2998 colon"}, "[42]": {"tested_on": "SR leukemia"}, "[43]": {"tested_on": "SK-MEL-28 melanoma"}, "[44]": {"tested_on": "HOP-92 NSCLC"}, "[45]": {"tested_on": "UACC-257 melanoma"}, "[46]": {"tested_on": "HCT-15 colon"}, "[47]": {"tested_on": "NCI-H522 lung"}, "[48]": {"tested_on": "NCI-H460 lung"}, "[49]": {"tested_on": "NCI-H23 lung"}, "[50]": {"tested_on": "HS 578T breast"}, "[51]": {"tested_on": "HL-60(TB) leukemia"}}, "note": "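The compound was tested at five concentrations on cells cultured in 96-well plates, with a 48-hour exposure period. GI50 = concentration required for 50% inhibition of growth. TGI denotes the concentration required for complete inhibition of growth.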"}
{"compound": "CCN(CC)CCCN1C(=O)c2c(c(C)c3c(oc4ccc(O)cc43)c2C)C1=O", "values": [{"measurement": "GI50", "setting": "[1]", "value": 1850, "unit": "nM"}, {"measurement": "TGI", "setting": "[1]", "value": 3420, "unit": "nM"}, {"measurement": "GI50", "setting": "[2]", "value": 1700, "unit": "nM"}, {"measurement": "TGI", "setting": "[2]", "value": 3100, "unit": "nM"}, {"measurement": "GI50", "setting": "[3]", "value": 1800, "unit": "nM"}, {"measurement": "TGI", "setting": "[3]", "value": 4260, "unit": "nM"}, {"measurement": "GI50", "setting": "[4]", "value": 1780, "unit": "nM"}, {"measurement": "TGI", "setting": "[4]", "value": 3360, "unit": "nM"}, {"measurement": "GI50", "setting": "[5]", "value": 1650, "unit": "nM"}, {"measurement": "TGI", "setting": "[5]", "value": 3230, "unit": "nM"}, {"measurement": "GI50", "setting": "[6]", "value": 1700, "unit": "nM"}, {"measurement": "TGI", "setting": "[6]", "value": 3520, "unit": "nM"}, {"measurement": "GI50", "setting": "[7]", "value": 1820, "unit": "nM"}, {"measurement": "TGI", "setting": "[7]", "value": 3260, "unit": "nM"}, {"measurement": "GI50", "setting": "[8]", "value": 1840, "unit": "nM"}, {"measurement": "TGI", "setting": "[8]", "value": 3530, "unit": "nM"}, {"measurement": "GI50", "setting": "[9]", "value": 1590, "unit": "nM"}, {"measurement": "TGI", "setting": "[9]", "value": 2980, "unit": "nM"}, {"measurement": "GI50", "setting": "[10]", "value": 1750, "unit": "nM"}, {"measurement": "TGI", "setting": "[10]", "value": 3260, "unit": "nM"}, {"measurement": "GI50", "setting": "[11]", "value": 1830, "unit": "nM"}, {"measurement": "TGI", "setting": "[11]", "value": 3550, "unit": "nM"}, {"measurement": "GI50", "setting": "[12]", "value": 12600, "unit": "nM"}, {"measurement": "TGI", "setting": "[12]", "value": 27200, "unit": "nM"}, {"measurement": "GI50", "setting": "[13]", "value": 1730, "unit": "nM"}, {"measurement": "TGI", "setting": "[13]", "value": 3250, "unit": "nM"}, {"measurement": "GI50", "setting": "[14]", "value": 1810, "unit": "nM"}, {"measurement": "TGI", "setting": "[14]", "value": 3710, "unit": "nM"}, {"measurement": "GI50", "setting": "[15]", "value": 1930, "unit": "nM"}, {"measurement": "TGI", "setting": "[15]", "value": 4270, "unit": "nM"}, {"measurement": "GI50", "setting": "[16]", "value": 1690, "unit": "nM"}, {"measurement": "TGI", "setting": "[16]", "value": 3270, "unit": "nM"}, {"measurement": "GI50", "setting": "[17]", "value": 17000, "unit": "nM"}, {"measurement": "TGI", "setting": "[17]", "value": 35900, "unit": "nM"}, {"measurement": "GI50", "setting": "[18]", "value": 1840, "unit": "nM"}, {"measurement": "TGI", "setting": "[18]", "value": 3350, "unit": "nM"}, {"measurement": "GI50", "setting": "[19]", "value": 2170, "unit": "nM"}, {"measurement": "TGI", "setting": "[19]", "value": 5330, "unit": "nM"}, {"measurement": "GI50", "setting": "[20]", "value": 2640, "unit": "nM"}, {"measurement": "TGI", "setting": "[20]", "value": 10800, "unit": "nM"}, {"measurement": "GI50", "setting": "[21]", "value": 1620, "unit": "nM"}, {"measurement": "TGI", "setting": "[21]", "value": 2980, "unit": "nM"}, {"measurement": "GI50", "setting": "[22]", "value": 1490, "unit": "nM"}, {"measurement": "TGI", "setting": "[22]", "value": 2970, "unit": "nM"}, {"measurement": "GI50", "setting": "[23]", "value": 1760, "unit": "nM"}, {"measurement": "TGI", "setting": "[23]", "value": 3200, "unit": "nM"}, {"measurement": "GI50", "setting": "[24]", "value": 1700, "unit": "nM"}, {"measurement": "TGI", "setting": "[24]", "value": 3130, "unit": "nM"}, {"measurement": "GI50", "setting": "[25]", "value": 1580, "unit": "nM"}, {"measurement": "TGI", "setting": "[25]", "value": 2980, "unit": "nM"}, {"measurement": "GI50", "setting": "[26]", "value": 1690, "unit": "nM"}, {"measurement": "TGI", "setting": "[26]", "value": 3430, "unit": "nM"}, {"measurement": "GI50", "setting": "[27]", "value": 1850, "unit": "nM"}, {"measurement": "TGI", "setting": "[27]", "value": 4280, "unit": "nM"}, {"measurement": "GI50", "setting": "[28]", "value": 1710, "unit": "nM"}, {"measurement": "TGI", "setting": "[28]", "value": 3120, "unit": "nM"}, {"measurement": "GI50", "setting": "[29]", "value": 1720, "unit": "nM"}, {"measurement": "TGI", "setting": "[29]", "value": 3110, "unit": "nM"}, {"measurement": "GI50", "setting": "[30]", "value": 2330, "unit": "nM"}, {"measurement": "TGI", "setting": "[30]", "value": 6520, "unit": "nM"}, {"measurement": "GI50", "setting": "[31]", "value": 1740, "unit": "nM"}, {"measurement": "TGI", "setting": "[31]", "value": 3320, "unit": "nM"}, {"measurement": "GI50", "setting": "[32]", "value": 1550, "unit": "nM"}, {"measurement": "TGI", "setting": "[32]", "value": 3020, "unit": "nM"}, {"measurement": "GI50", "setting": "[33]", "value": 1740, "unit": "nM"}, {"measurement": "TGI", "setting": "[33]", "value": 3310, "unit": "nM"}, {"measurement": "GI50", "setting": "[34]", "value": 16100, "unit": "nM"}, {"measurement": "TGI", "setting": "[34]", "value": 31500, "unit": "nM"}, {"measurement": "GI50", "setting": "[35]", "value": 1840, "unit": "nM"}, {"measurement": "TGI", "setting": "[35]", "value": 3290, "unit": "nM"}, {"measurement": "GI50", "setting": "[36]", "value": 1930, "unit": "nM"}, {"measurement": "TGI", "setting": "[36]", "value": 3680, "unit": "nM"}, {"measurement": "GI50", "setting": "[37]", "value": 1790, "unit": "nM"}, {"measurement": "TGI", "setting": "[37]", "value": 3320, "unit": "nM"}, {"measurement": "GI50", "setting": "[38]", "value": 1910, "unit": "nM"}, {"measurement": "TGI", "setting": "[38]", "value": 3580, "unit": "nM"}, {"measurement": "GI50", "setting": "[39]", "value": 1710, "unit": "nM"}, {"measurement": "TGI", "setting": "[39]", "value": 3770, "unit": "nM"}, {"measurement": "GI50", "setting": "[40]", "value": 1580, "unit": "nM"}, {"measurement": "TGI", "setting": "[40]", "value": 3010, "unit": "nM"}, {"measurement": "GI50", "setting": "[41]", "value": 2670, "unit": "nM"}, {"measurement": "TGI", "setting": "[41]", "value": 7390, "unit": "nM"}, {"measurement": "GI50", "setting": "[42]", "value": 765, "unit": "nM"}, {"measurement": "TGI", "setting": "[42]", "value": 2780, "unit": "nM"}, {"measurement": "GI50", "setting": "[43]", "value": 1820, "unit": "nM"}, {"measurement": "TGI", "setting": "[43]", "value": 3380, "unit": "nM"}, {"measurement": "GI50", "setting": "[44]", "value": 1330, "unit": "nM"}, {"measurement": "TGI", "setting": "[44]", "value": 2810, "unit": "nM"}, {"measurement": "GI50", "setting": "[45]", "value": 1880, "unit": "nM"}, {"measurement": "TGI", "setting": "[45]", "value": 3920, "unit": "nM"}, {"measurement": "GI50", "setting": "[46]", "value": 1680, "unit": "nM"}, {"measurement": "TGI", "setting": "[46]", "value": 3220, "unit": "nM"}, {"measurement": "GI50", "setting": "[47]", "value": 1840, "unit": "nM"}, {"measurement": "TGI", "setting": "[47]", "value": 3750, "unit": "nM"}, {"measurement": "GI50", "setting": "[48]", "value": 1830, "unit": "nM"}, {"measurement": "TGI", "setting": "[48]", "value": 3470, "unit": "nM"}, {"measurement": "GI50", "setting": "[49]", "value": 1990, "unit": "nM"}, {"measurement": "TGI", "setting": "[49]", "value": 3800, "unit": "nM"}, {"measurement": "GI50", "setting": "[50]", "value": 2150, "unit": "nM"}, {"measurement": "TGI", "setting": "[50]", "value": 5310, "unit": "nM"}, {"measurement": "GI50", "setting": "[51]", "value": 1570, "unit": "nM"}, {"measurement": "TGI", "setting": "[51]", "value": 3430, "unit": "nM"}]}
